Where two headings read alike, the source gives them in different places.
Experiments:
[1] = rcm bond, 15-membered ring, Hoveyda-Grubbs II (5 mol%), DCE, 80.0 °C
[2] = test system: HCV genotype 1a (H77 strain) replicon in HUH-7 cells; assay: HCV replicon luciferase reporter assay, genotype 1a; format: cell-based; conditions: Hepatitis C virus, 72 h, genotype 1a replicon, 3 days incubation, read-out: LE_1a (EC50, range)
Procedure, shortened: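 Stable HUH-7 line carrying luciferase-reporter genotype 1a (H77) replicon with adaptive NS3 P1496L and NS5A S2204I mutations; 3.0×10^3 cells/well in 4% FCS, 0.5% DMSO, twenty-point 3-fold titration, 3 days at 37 °C. Renilla luminescence with 7.5 μM EnduRen; EC50 by four-parameter logistic fit; CC50 by multiplexed Cell Titer-Blue.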

[3] = test system: HCV genotype 1b (Con1) replicon in HUH-7 cells; assay: HCV replicon luciferase reporter assay, genotype 1b; format: cell-based; conditions: Hepatitis C virus, 72 h, genotype 1b replicon, 3 days incubation, read-out: LE_1b (EC50, range)
Procedure, shortened: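 The HUH-7 cells stably carried a genotype 1b Con1 replicon with a Renilla luciferase reporter and the S1179I adaptive mutation. Luminescence was read after 2 h with 7.5 μM EnduRen, and EC50s came from four-parameter logistic fits.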

SMILES | ring closure, isolated yield ([1]; from C=CCCCO[C@@H](CC)[C@H](NC(=O)OC(C)(C)C)C(=O)N1C[C@H](O)C[C@H]1C(=O)N[C@]1(C(=O)NS(=O)(=O)C2(C)CC2)C[C@H]1C=C, 7.5 mM, 74.0 h) [%] | ring closure, isolated yield ([1]; from C=CCC[C@@H](C)O[C@@H](C)[C@H](NC(=O)OC(C)(C)C)C(=O)N1C[C@H](O)C[C@H]1C(=O)N[C@]1(C(=O)NS(=O)(=O)C2(C)CC2)C[C@H]1C=C, 8.0 mM, 2.0 h) [%] | EC50 [2] [nM] | EC50 [3] [nM]
CC[C@@H]1OCCC/C=C\[C@@H]2C[C@@]2(C(=O)NS(=O)(=O)C2(C)CC2)NC(=O)[C@@H]2C[C@@H](O)CN2C(=O)[C@H]1NC(=O)OC(C)(C)C | 22 | – | – | –
C[C@@H]1CC/C=C\[C@@H]2C[C@@]2(C(=O)NS(=O)(=O)C2(C)CC2)NC(=O)[C@@H]2C[C@@H](O)CN2C(=O)[C@@H](NC(=O)OC(C)(C)C)[C@H](C)O1 | – | 24 | – | –
CC[C@@H]1O[C@H](C)CC/C=C\[C@@H]2C[C@@]2(C(=O)NS(=O)(=O)C2(C)CC2)NC(=O)[C@@H]2C[C@@H](Oc3ncc(OC)c4ccc(F)cc34)CN2C(=O)[C@H]1NC(=O)OC(C)(C)C(F)(F)F [Compound 2606] | – | – | 0.51 to 1 | 0.1 to 0.5
CCOc1cc2ccnc(O[C@@H]3C[C@H]4C(=O)N[C@]5(C(=O)NS(=O)(=O)C6(C)CC6)C[C@H]5/C=C\CC[C@@H](C)O[C@@H](CC)[C@H](NC(=O)OC(C)(C)C(C)(F)F)C(=O)N4C3)c2cc1F [Compound 2607, 3,3-difluoro-2-methylbutan-2-yl ((2R,6S,7S,9R,13 aS,14aR,16aS,Z)-2-((6-ethoxy-7-fluoroisoquinolin-1-yl)oxy)-7-ethyl-9-methyl-14a-(((1-methylcyclopropyl)sulfonyl)carbamoyl)-5,16-dioxo-2,3,5,6,7,9,10,11,13a,14,14a,15,16,16a-tetradecahydro-1H-cyclopropa[i]pyrrolo[1,2-e][1,5,8]oxadiazacyclopentadecin-6-yl)carbamate] | – | – | 0.51 to 1 | 0.1 to 0.5
CCOc1cc2ccnc(O[C@@H]3C[C@H]4C(=O)N[C@]5(C(=O)NS(=O)(=O)C6(C)CC6)C[C@H]5/C=C\CC[C@@H](C)O[C@@H](CC)[C@H](NC(=O)OC(C)(C)C(F)(F)F)C(=O)N4C3)c2cc1F [Compound 2608, 1,1,1-trifluoro-2-methylpropan-2-yl ((2R,6S,7S,9R,13aS,14aR,16aS,Z)-2-((6-ethoxy-7-fluoroisoquinolin-1-yl)oxy)-7-ethyl-9-methyl-14a-(((1-methylcyclopropyl)sulfonyl)carbamoyl)-5,16-dioxo-2,3,5,6,7,9,10,11,13a,14,14a,15,16,16a-tetradecahydro-1H-cyclopropa[i]pyrrolo[1,2-e][1,5,8]oxadiazacyclopentadecin-6-yl)carbamate] | – | – | 0.51 to 1 | 0.1 to 0.5
CC[C@@H]1O[C@H](C)CC/C=C\[C@@H]2C[C@@]2(C(=O)NS(=O)(=O)C2(C)CC2)NC(=O)[C@@H]2C[C@@H](Oc3nccc4c5c(ccc34)OCCO5)CN2C(=O)[C@H]1NC(=O)OC(C)(C)C(C)(F)F [Compound 2609, 3,3-difluoro-2-methylbutan-2-yl ((2R,6S,7S,9R,13aS,14aR,16aS,Z)-2-((2,3-dihydro-[1,4]dioxino[2,3-f]isoquinolin-7-yl)oxy)-7-ethyl-9-methyl-14a-(((1-methylcyclopropyl)sulfonyl)carbamoyl)-5,16-dioxo-2,3,5,6,7,9,10,11,13a,14,14a,15,16,16a-tetradecahydro-1H-cyclopropa[i]pyrrolo[1,2-e][1,5,8]oxadiazacyclopentadecin-6-yl)carbamate] | – | – | 1.01 to 5 | 0.51 to 1
CC[C@@H]1O[C@H](C)CC/C=C\[C@@H]2C[C@@]2(C(=O)NS(=O)(=O)C2(C)CC2)NC(=O)[C@@H]2C[C@@H](Oc3nccc4c5c(ccc34)OCCO5)CN2C(=O)[C@H]1NC(=O)OC(C)(C)C(F)(F)F [Compound 2610, 1,1,1-trifluoro-2-methylpropan-2-yl ((2R,6S,7S,9R,13aS,14aR,16aS,Z)-2-((2,3-dihydro-[1,4]dioxino[2,3-f]isoquinolin-7-yl)oxy)-7-ethyl-9-methyl-14a-(((1-methylcyclopropyl)sulfonyl)carbamoyl)-5,16-dioxo-2,3,5,6,7,9,10,11,13a,14,14a,15,16,16a-tetradecahydro-1H-cyclopropa[i]pyrrolo[1,2-e][1,5,8]oxadiazacyclopentadecin-6-yl)carbamate] | – | – | 1.01 to 5 | 0.51 to 1
CC[C@@H]1O[C@H](C)CC/C=C\[C@@H]2C[C@@]2(C(=O)NS(=O)(=O)C2(C)CC2)NC(=O)[C@@H]2C[C@@H](Oc3nccc4c5c(ccc34)OCCO5)CN2C(=O)[C@H]1NC(=O)OC(C)(C)C [Compound 2611, tert-butyl ((2R,6S,7S,9R,13aS,14aR,16aS,Z)-2-((2,3-dihydro-[1,4]dioxino[2,3-f]isoquinolin-7-yl)oxy)-7-ethyl-9-methyl-14a-(((1-methylcyclopropyl)sulfonyl)carbamoyl)-5,16-dioxo-2,3,5,6,7,9,10,11,13a,14,14a,15,16,16a-tetradecahydro-1H-cyclopropa[i]pyrrolo[1,2-e][1,5,8]oxadiazacyclopentadecin-6-yl)carbamate] | – | – | 1.01 to 5 | 0.51 to 1
CC[C@@H]1O[C@H](C)CC/C=C\[C@@H]2C[C@@]2(C(=O)NS(=O)(=O)C2(C)CC2)NC(=O)[C@@H]2C[C@@H](Oc3nc(-c4ccc(OC(C)C)cn4)cc4cc(OC)ccc34)CN2C(=O)[C@H]1NC(=O)OC(C)(C)C(F)(F)F [Compound 2612, 1,1,1-trifluoro-2-methylpropan-2-yl ((2R,6S,7S,9R,13aS,14aR,16aS,Z)-7-ethyl-2-((3-(5-isopropoxypyridin-2-yl)-6-methoxyisoquinolin-1-yl)oxy)-9-methyl-14a-(((1-methylcyclopropyl)sulfonyl)carbamoyl)-5,16-dioxo-2,3,5,6,7,9,10,11,13a,14,14a,15,16,16a-tetradecahydro-1H-cyclopropa[i]pyrrolo[1,2-e][1,5,8]oxadiazacyclopentadecin-6-yl)carbamate] | – | – | 1.01 to 5 | 1.01 to 5
CC[C@@H]1O[C@H](C)CC/C=C\[C@@H]2C[C@@]2(C(=O)NS(=O)(=O)C2(C)CC2)NC(=O)[C@@H]2C[C@@H](Oc3nc(-c4ccc(OC(C)C)cn4)cc4cc(OC)ccc34)CN2C(=O)[C@H]1NC(=O)OC(C)(C)C(C)(F)F [Compound 2613, 3,3-difluoro-2-methylbutan-2-yl ((2R,6S,7S,9R,13aS,14aR,16aS,Z)-7-ethyl-2-((3-(5-isopropoxypyridin-2-yl)-6-methoxyisoquinolin-1-yl)oxy)-9-methyl-14a-(((1-methylcyclopropyl)sulfonyl)carbamoyl)-5,16-dioxo-2,3,5,6,7,9,10,11,13a,14,14a,15,16,16a-tetradecahydro-1H-cyclopropa[i]pyrrolo[1,2-e][1,5,8]oxadiazacyclopentadecin-6-yl)carbamate] | – | – | 1.01 to 5 | 0.1 to 0.5
CCOc1cc2ccnc(O[C@@H]3C[C@H]4C(=O)N[C@]5(C(=O)NS(=O)(=O)C6(C)CC6)C[C@H]5/C=C\CC[C@@H](C)O[C@@H](CC)[C@H](NC(=O)OC(C)(C)C(F)F)C(=O)N4C3)c2cc1F [Compound 2615, 1,1-difluoro-2-methylpropan-2-yl ((2R,6S,7S,9R,13 aS,14aR,16aS,Z)-2-((6-ethoxy-7-fluoroisoquinolin-1-yl)oxy)-7-ethyl-9-methyl-14a-(((1-methylcyclopropyl)sulfonyl)carbamoyl)-5,16-dioxo-2,3,5,6,7,9,10,11,13a,14,14a,15,16,16a-tetradecahydro-1H-cyclopropa[i]pyrrolo[1,2-e][1,5,8]oxadiazacyclopentadecin-6-yl)carbamate] | – | – | 0.51 to 1 | 0.51 to 1
CC[C@@H]1O[C@H](C)CC/C=C\[C@@H]2C[C@@]2(C(=O)NS(=O)(=O)C2(C)CC2)NC(=O)[C@@H]2C[C@@H](Oc3nccc4cc(OC)c(F)cc34)CN2C(=O)[C@H]1NC(=O)OC(C)(C)C(F)F [Compound 2616] | – | – | 1.01 to 5 | 1.01 to 5
CC[C@@H]1O[C@H](C)CC/C=C\[C@@H]2C[C@@]2(C(=O)NS(=O)(=O)C2(C)CC2)NC(=O)[C@@H]2C[C@@H](Oc3ncc(OC)c4ccc(F)cc34)CN2C(=O)[C@H]1NC(=O)OC(C)(C)C(F)F [Compound 2617, 1,1-difluoro-2-methylpropan-2-yl ((2R,6S,7S,9R,13aS,14aR,16aS,Z)-7-ethyl-2-((7-fluoro-4-methoxyisoquinolin-1-yl)oxy)-9-methyl-14a-(((1-methylcyclopropyl)sulfonyl)carbamoyl)-5,16-dioxo-2,3,5,6,7,9,10,11,13a,14,14a,15,16,16a-tetradecahydro-1H-cyclopropa[i]pyrrolo[1,2-e][1,5,8]oxadiazacyclopentadecin-6-yl)carbamate] | – | – | 0.1 to 0.5 | 0.51 to 1
CC[C@@H]1O[C@H](C)CC/C=C\[C@@H]2C[C@@]2(C(=O)NS(=O)(=O)C2(C)CC2)NC(=O)[C@@H]2C[C@@H](Oc3ncc(OC)c4ccccc34)CN2C(=O)[C@H]1NC(=O)OC(C)(C)C(F)F [Compound 2618, 1,1-difluoro-2-methylpropan-2-yl ((2R,6S,7S,9R,13aS,14aR,16aS,Z)-7-ethyl-2-((4-methoxyisoquinolin-1-yl)oxy)-9-methyl-14a-(((1-methylcyclopropyl)sulfonyl)carbamoyl)-5,16-dioxo-2,3,5,6,7,9,10,11,13a,14,14a,15,16,16a-tetradecahydro-1H-cyclopropa[i]pyrrolo[1,2-e][1,5,8]oxadiazacyclopentadecin-6-yl)carbamate] | – | – | 0.1 to 0.5 | 0.1 to 0.5
